# Results taken from patent US20260140098A1, “METHOD FOR TREATING PLASMA SAMPLE CONTAINING (7aS,2'S)-2-OXO-CLOPIDOGREL AND METHOD FOR DETERMINING THE SAME” (CHENGDU SHIBEIKANG BIOMEDICAL TECHNOLOGY CO., LTD., priority 2021, published 2026).
# Read-outs that look alike come from different tables or passages of the source.
# Assay: Stability of (7aS,2′S)-2-oxo-clopidogrel in plasma, screening of TCEP dosage (Example 4)
# Assay type: in vitro ADME
# Settings: for recovery at 0 min, 0.1 ng/mL / recovery at 30 min, 0.1 ng/mL / recovery at 60 min, 0.1 ng/mL / recovery at 120 min, 0.1 ng/mL: theoretical 0.1 ng/mL; for recovery at 0 min, 0.1 ng/mL / recovery at 30 min, 0.1 ng/mL / recovery at 60 min, 0.1 ng/mL / recovery at 120 min, 0.1 ng/mL / recovery at 0 min, 12 ng/mL / recovery at 30 min, 12 ng/mL / recovery at 60 min, 12 ng/mL / recovery at 120 min, 12 ng/mL: read-out: Recovery rate; for recovery at 0 min, 12 ng/mL / recovery at 30 min, 12 ng/mL / recovery at 60 min, 12 ng/mL / recovery at 120 min, 12 ng/mL: theoretical 12.0 ng/mL
# Protocol: S2. Plasma sample pre-treatment: taking 100 μl of the plasma, adding 5 μl of an internal standard working solution and 300 μl of acetonitrile respectively; after vortex mixing, centrifuging at 2-8° C. and 10,000 r/min for 10 min, and collecting the supernatant for later use.
# S3. LC-MS/MS analysis: injecting 10 μl of the supernatant prepared from step S2 for determination, where the liquid chromatography conditions are: • the chromatographic column is Kinetex® 1.7 μm C18 100 A 100×2.1 mm; the column temperature is 40° C.; the mobile phase is acetonitrile-0.2% aqueous formic acid solution with a flow rate of 0.2 ml/min; and a gradient elution is carried out as specified in the table below:
# ESI ion source, positive ion detection in multiple reaction monitoring mode (MRM); the quantitatively analyzed ions (7aS,2′S)-2-oxo-clopidogrel: m/z 338.100→155.000, IS: m/z 341.100→158.000, a capillary voltage of 4.0 KV, a cone voltage of 25 V, a desolvation gas temperature of 400° C. and a source temperature of 150° C. The optimal collision energy is 20 eV.
# Blank plasma was taken and TCEP was added to prepare plasma containing TCEP at different concentrations (10, 50, 100 mg/ml). Subsequently, standard series solution of (7aS,2′S)-2-oxo-clopidogrel was added separately to prepare quality control samples with two concentrations of (7aS,2′S)-2-oxo-clopidogrel (0.1 and 12.0 ng/ml), 3 samples for each concentration. They were placed at room temperature and on ice, respectively, and the plasma samples at different placing time points were taken to examine the stability by pre-treating the plasma samples according to the method of S2 of Example 1, followed by LC/MS/MS determination according to the method of S3.
# [1] = plasma containing TCEP 10 mg/ml, TCEP 10 mg/ml, on ice
# [2] = plasma containing TCEP 10 mg/ml, TCEP 10 mg/ml, room temperature
# [3] = plasma without TCEP, No TCEP, on ice
# [4] = plasma without TCEP, No TCEP, room temperature
# [5] = plasma, TCEP 50 mg/ml, room temperature
# [6] = plasma, TCEP 100 mg/ml, room temperature
smiles,measurement,setting,value
"COC(=O)[C@H](c1ccccc1Cl)N1CC[C@@H]2SC(=O)C=C2C1 [(7aS,2′S)-2-oxo-clopidogrel, methyl(S)-2-(2-chlorophenyl)-2-((S)-2-oxo-2,6,7,7a-tetrahydrothieno[3,2-c]pyridin-5 (4H)-yl)acetate]",Stability in plasma (in words),on ice compared with room temperature,more stable when placed on ice than at room temperature
same,"recovery at 0 min, 0.1 ng/mL",[1],96.5%
same,"recovery at 30 min, 0.1 ng/mL",[1],94.2%
same,"recovery at 60 min, 0.1 ng/mL",[1],86.3%
same,"recovery at 120 min, 0.1 ng/mL",[1],78.2%
same,"recovery at 0 min, 0.1 ng/mL",[2],96.5%
same,"recovery at 30 min, 0.1 ng/mL",[2],95.2%
same,"recovery at 60 min, 0.1 ng/mL",[2],83.3%
same,"recovery at 120 min, 0.1 ng/mL",[2],72.9%
same,"recovery at 0 min, 12 ng/mL",[1],102%
same,"recovery at 30 min, 12 ng/mL",[1],99.2%
same,"recovery at 60 min, 12 ng/mL",[1],88.8%
same,"recovery at 120 min, 12 ng/mL",[1],82.7%
same,"recovery at 0 min, 12 ng/mL",[2],102%
same,"recovery at 30 min, 12 ng/mL",[2],97.5%
same,"recovery at 60 min, 12 ng/mL",[2],86.7%
same,"recovery at 120 min, 12 ng/mL",[2],78.8%
same,"recovery at 0 min, 0.1 ng/mL","plasma containing TCEP 50 mg/ml, TCEP 50 mg/ml, room temperature",96.5%
same,Stability in plasma (in words),plasma samples without TCEP,degraded fast
same,"recovery at 0 min, 0.1 ng/mL",[3],96.5%
same,"recovery at 30 min, 0.1 ng/mL",[3],84.2%
same,"recovery at 60 min, 0.1 ng/mL",[3],76.3%
same,"recovery at 120 min, 0.1 ng/mL",[3],62.2%
same,"recovery at 30 min, 0.1 ng/mL",[4],78.2%
same,"recovery at 60 min, 0.1 ng/mL",[4],63.3%
same,"recovery at 120 min, 0.1 ng/mL",[4],52.9%
same,"recovery at 0 min, 12 ng/mL",[3],102%
same,"recovery at 30 min, 12 ng/mL",[3],85.8%
same,"recovery at 60 min, 12 ng/mL",[3],80.4%
same,"recovery at 120 min, 12 ng/mL",[3],60.3%
same,"recovery at 0 min, 12 ng/mL",[4],102%
same,"recovery at 30 min, 12 ng/mL",[4],78.8%
same,"recovery at 60 min, 12 ng/mL",[4],69.8%
same,"recovery at 120 min, 12 ng/mL",[4],54.8%
same,"recovery at 0 min, 0.1 ng/mL","plasma, No TCEP, room temperature",96.5%
same,"recovery at 0 min, 0.1 ng/mL","plasma, TCEP 50 mg/ml, on ice",96.5%
same,"recovery at 30 min, 0.1 ng/mL","plasma, TCEP 50 mg/ml, on ice",95.6%
same,"recovery at 60 min, 0.1 ng/mL","plasma, TCEP 50 mg/ml, on ice",93.2%
same,"recovery at 120 min, 0.1 ng/mL","plasma, TCEP 50 mg/ml, on ice",91.1%
same,"recovery at 30 min, 0.1 ng/mL",[5],93.5%
same,"recovery at 60 min, 0.1 ng/mL",[5],91.4%
same,"recovery at 120 min, 0.1 ng/mL",[5],89.5%
same,"recovery at 0 min, 12 ng/mL","plasma, TCEP 50 mg/ml, on ice",102%
same,"recovery at 30 min, 12 ng/mL","plasma, TCEP 50 mg/ml, on ice",102%
same,"recovery at 60 min, 12 ng/mL","plasma, TCEP 50 mg/ml, on ice",99.2%
same,"recovery at 120 min, 12 ng/mL","plasma, TCEP 50 mg/ml, on ice",95%
same,"recovery at 0 min, 12 ng/mL",[5],102%
same,"recovery at 30 min, 12 ng/mL",[5],101%
same,"recovery at 60 min, 12 ng/mL",[5],99.2%
same,"recovery at 120 min, 12 ng/mL",[5],88.3%
same,"recovery at 0 min, 0.1 ng/mL","plasma, TCEP 100 mg/ml, on ice",96.5%
same,"recovery at 30 min, 0.1 ng/mL","plasma, TCEP 100 mg/ml, on ice",95.8%
same,"recovery at 60 min, 0.1 ng/mL","plasma, TCEP 100 mg/ml, on ice",94.2%
same,"recovery at 120 min, 0.1 ng/mL","plasma, TCEP 100 mg/ml, on ice",95.1%
same,"recovery at 0 min, 0.1 ng/mL",[6],96.5%
same,"recovery at 30 min, 0.1 ng/mL",[6],95.5%
same,"recovery at 60 min, 0.1 ng/mL",[6],93.4%
same,"recovery at 120 min, 0.1 ng/mL",[6],91.5%
same,"recovery at 0 min, 12 ng/mL","plasma, TCEP 100 mg/ml, on ice",102%
same,"recovery at 30 min, 12 ng/mL","plasma, TCEP 100 mg/ml, on ice",103%
same,"recovery at 60 min, 12 ng/mL","plasma, TCEP 100 mg/ml, on ice",101%
same,"recovery at 120 min, 12 ng/mL","plasma, TCEP 100 mg/ml, on ice",98.3%
same,"recovery at 0 min, 12 ng/mL",[6],102%
same,"recovery at 30 min, 12 ng/mL",[6],102%
same,"recovery at 60 min, 12 ng/mL",[6],99.2%
same,"recovery at 120 min, 12 ng/mL",[6],96.7%
